Reference: patent US7297796B2, “Sulfamoyl benzamide derivatives and methods of their use” (Adolor Corporation, priority 2004, dated 2007)
pEC50, pIC50, pKi: −log10 of the molar value.

How the values were obtained:
[1] = test system: L5 SNL-induced tactile allodynia; assay: Neuropathic pain assay: L5 SNL-induced tactile allodynia (von Frey); format: in vivo, rat; conditions: L5 SNL rats, n = 7-8/group
Procedure: Male Sprague-Dawley rats (120-250 g, Harlan Laboratories, Columbus, Ohio) were housed in pairs and allowed free access to food and water throughout the study. Room temperature and humidity were maintained at 21° C. and 70%, respectively. Nerve injury was produced with tight ligation of the left L5 spinal nerve (Kim, S. H., and J. M. Chung, Pain, 50, 355-363 (1992); LaBuda, C. J. and Fuchs, P. N., Exp Neurol., 163, 490-494(2000); LaBuda, C. J. and Fuchs, P. N., Neurosci Letters, 290, 137-140(2000); LaBuda, C. J., Donahue, R., Fuchs, P. N., Pain, 94, 59-63, (2001)). Briefly, animals were placed in the prone position to access the left L4-L6 spinal nerves. Under magnification, approximately one third of the L6 transverse process was removed. The L5 spinal nerve was identified and carefully dissected free from the adjacent L4 spinal nerve and then tightly ligated using 6-0 silk suture. The wound was treated with an antiseptic solution, the muscle layer was sutured, and the wound was closed with wound clips. Sham-operated surgical controls were prepared in the same manner, but the L5 spinal nerve was not […]. All housing conditions and experimental procedures were performed in accordance with the ethical guidelines of the IASP and the Adolor Corporation Animal Care and Use Committee.
Seven to ten animals per group were used for all behavioral assays. After a 7-10 day post-surgical recovery, animals were tested for baseline sensitivity to tactile stimulation of both hindpaws. Allodynic animals were defined as animals having a threshold of less than 7.5 grams of pressure applied to the injured hindpaw. Tactile sensitivity was evaluated using von Frey monofilaments before and after treatment. […] Thirty minutes after treatment, tactile sensitivity was evaluated. Five to seven days later, animals were tested using a different compound. Each animal was tested three times with different compounds. All behavioral testing was performed between 9:00 AM and 5:00 PM in a well-illuminated room with white background noise.
Animals were placed in a Plexiglas chamber (20 cm×10.5 cm×40.5 cm) and habituated for 15 minutes. The chamber was positioned on top of a mesh screen so that von Frey monofilaments could be presented to the plantar surfaces of both hindpaws. Measurements of tactile sensitivity for each hindpaw were obtained using the up/down method (Dixon, W. J., Annu Rev Pharmacol Toxicol 20, 441-462, 1980) with seven von Frey monofilaments (0.04, 0.07, 0.16, 0.4, 1, 6, and 15 grams). Each trial started with a von Frey force of 0.4 g delivered to the right hindpaw and then the left hindpaw for approximately 1-2 sec each. If there was no withdrawal response, the next higher force was delivered. If there was a response, the next lower force was delivered. This procedure was performed until no response was made at the highest force (15 grams) or until four stimuli were administered following the initial response. The 50% paw withdrawal threshold for each paw was calculated using the following formula: [Xth]log=[vFr]log+ky where [vFr] is the force of the last von Frey filament used, k=0.2249 which is the average interval (in log units) between the von Frey monofilaments, and y is a value that depends upon the pattern of withdrawal responses (Dixon, Id.). […] Testing for tactile sensitivity was performed twice and the mean 50% withdrawal value assigned as the tactile sensitivity for the right and left paws for each animal.
Tactile sensitivity for both hindpaws before and after treatments were analyzed using one-way analysis of variance (ANOVA) followed by post-hoc comparisons (protected t-test) for group differences. An alpha level of 0.05 was used for all analyses.

CB1 receptor [2] = molecular target: T1, CB1 receptor (Homo sapiens, UniProt P21554); assay: hCB1 receptor binding, [3H]CP55940 displacement; conditions: human cloned CB1 receptor
T1 construct: expressed in transfected cells; membranes
Procedure: (§1) Ki values in receptor binding experiments were determined by Cheng-Prusoff correction of IC50 values derived from automated nonlinear regression analysis of sigmoidal titration curves using a three-parameter modification (slope set to 1.0) of the four-parameter equation described in Cheng, Y.-C. and W. H. Prusoff, Biochem. Pharmacol. 22:3099-3108 (1973) and DeLean et al., Am. J. Physiol. 235:E97-E102 (1978).
(§2) Chinese hamster ovary cells (CHO-K1), stably transfected with either hCB1 or hCB2, were washed two times with cold PBS, scraped from 500 cm^2 tissue culture plates, and pelleted by centrifugation at 1000×g for 10 min. The supernatant was discarded and the pellet was resuspended in Tris assay buffer (50 mM Tris HCl, pH 7.8, containing 1.0 mM EGTA, 5.0 mM MgCl2, […], and 0.5 mg/mL aprotinin), homogenized with a Polytron homogenizer (Brinkmann) at a setting of 1 for 20 sec and centrifuged at 38,000×g for 20 min at 4° C. The pellet was resuspended in Tris assay buffer and aliquots of 1 mg protein/mL were stored at −80° C. for further use.
(§3) Binding assays were performed by incubating 0.2-0.6 nM (34,000-100,000 dpm) [^3H]CP55940 with membranes prepared from cells expressing cloned human CB1 or CB2 receptors in buffer A (50 mM Tris HCl, pH 7.0, 5.0 mM MgCl2, 1.0 mM EGTA and 1.0 mg/mL fatty acid free bovine serum albumin). After incubation for 60 min at room temperature for the hCB2 binding assay or 120 min at 30° C. for the hCB1 assay, the assays were filtered through GF/C filters that had been pre-soaked overnight in 0.5% (w/v) PEI and 0.1% BSA in water. The filters were rinsed 6 times with one mL of cold wash buffer (50 mM Tris HCl, pH 7.0, 5.0 mM MgCl2, 1.0 mM EGTA and 0.75 mg/mL fatty acid free bovine serum albumin), 30 μL of MicroScint 20 was added to each filter and the radioactivity on the filters determined by scintillation spectroscopy. Nonspecific binding was determined in the presence of 10 μM WIN55212-2.

CB2 receptor [3] = molecular target: T2, CB2 receptor (Homo sapiens, UniProt P34972); assay: hCB2 receptor binding, [3H]CP55940 displacement; conditions: human cloned CB2 receptor
T2 construct: expressed in transfected cells; membranes
Procedure: as §1, §2, §3

CB1 receptor [4] = molecular target: T1, CB1 receptor; assay: hCB1-mediated stimulation of [35S]GTPγS binding; format: biochemical; conditions: agonist; read-out: in vitro CB1 receptor agonist potency EC50
Procedure: (§4) EC50 values in functional assays were also derived from automated nonlinear regression analysis of sigmoidal titration curves using the three-parameter modification of the four-parameter equation.
as §2, with “The pellet was resuspended in Tris assay buffer and aliquots of 1 mg protein/mL were stored at −80° C. for further use.” left out
hCB1-Mediated stimulation of [^35S]GTPγS binding was measured in a mixture containing 100-150 pM [^35S]GTPγS, 150 mM NaCl, 45 mM MgCl2, […], 0.4 mM DTT, 1 mM EGTA, 1 mg/mL fatty acid free BSA, 25 μg of membrane protein and agonist in a total volume of 250 μL of buffer A in 96 well Basic Flashplates (Perkin Elmer). After incubation at room temperature for 2 hours the plates were centrifuged at 800×g at 4° C. for 5 min and the radioactivity bound to the membranes was determined by scintillation spectrometry using the Topcount (Perkin Elmer).

CB2 receptor [5] = molecular target: T2, CB2 receptor; assay: hCB2-mediated [35S]GTPγS binding; format: biochemical; conditions: for pEC50: agonist, read-out: in vitro CB2 receptor agonist potency EC50
Procedure: as §4, §2
hCB2-Mediated [^35S]GTPγS binding was measured in the same way except the assay mixture contained […] and the incubation time was 6 hours. [^35S]GTPγS binding in rat cerebellar homogenate was determined in a mixture containing 40-60 pM [^35S]GTPγS, homogenate assay buffer (50 mM Tris-HCl, 3 mM MgCl2, 0.2 mM EGTA), 100 mM NaCl, 10 mM MgCl2, […], 20 μg homogenate protein/well and agonist in a total volume of 250 μL in 96 well Basic Flashplates (Perkin Elmer). After incubation at 30° C. for 2 hours, the plates were centrifuged at 800×g at 4° C. for 5 min and the radioactivity bound to the membrane was determined by scintillation spectrometry using the Topcount (Perkin Elmer).

T1 sequence (P21554 whole entry): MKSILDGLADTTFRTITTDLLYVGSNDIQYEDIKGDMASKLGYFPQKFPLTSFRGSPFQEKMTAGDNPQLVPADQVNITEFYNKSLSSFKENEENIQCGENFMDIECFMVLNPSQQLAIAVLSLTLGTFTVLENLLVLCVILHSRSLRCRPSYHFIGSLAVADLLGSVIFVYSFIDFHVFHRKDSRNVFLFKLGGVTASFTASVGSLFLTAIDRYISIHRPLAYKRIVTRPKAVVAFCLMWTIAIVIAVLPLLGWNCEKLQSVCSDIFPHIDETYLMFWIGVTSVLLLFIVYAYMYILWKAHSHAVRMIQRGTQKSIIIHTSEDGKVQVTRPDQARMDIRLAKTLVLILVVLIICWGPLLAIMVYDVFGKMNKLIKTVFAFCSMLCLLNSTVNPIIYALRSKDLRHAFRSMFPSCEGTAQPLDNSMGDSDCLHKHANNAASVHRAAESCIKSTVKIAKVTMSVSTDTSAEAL
T2 sequence (P34972 whole entry): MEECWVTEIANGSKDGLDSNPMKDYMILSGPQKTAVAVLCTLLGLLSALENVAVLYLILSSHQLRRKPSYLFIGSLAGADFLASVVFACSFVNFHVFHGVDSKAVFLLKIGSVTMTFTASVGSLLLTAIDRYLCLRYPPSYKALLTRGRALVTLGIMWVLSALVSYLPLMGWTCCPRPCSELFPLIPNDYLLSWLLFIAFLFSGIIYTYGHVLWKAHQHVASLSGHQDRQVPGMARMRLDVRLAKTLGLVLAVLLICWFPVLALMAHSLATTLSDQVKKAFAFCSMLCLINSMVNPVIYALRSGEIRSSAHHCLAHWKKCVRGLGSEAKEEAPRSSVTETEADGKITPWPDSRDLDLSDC

| Structure (SMILES) | Anti-Allodynia [%] ([1]; 3 mg/kg) | pKi (CB1 receptor [2]) | pKi (CB2 receptor [3]) | pEC50 (CB1 receptor [4]) | pEC50 (CB2 receptor [5]) | further results |
| --- | --- | --- | --- | --- | --- | --- |
| CN1CCCCC1Cn1cc(C(=O)c2cc([N+](=O)[O-])ccc2I)c2ccccc21 (centres unmarked) [AM1241, reference compound] | 27.5 ± 10.1% |  |  |  |  |  |
| Cc1ccc(C(=O)N[C@H]2C(C)(C)[C@@H]3CC[C@@]2(C)C3)cc1S(=O)(=O)N1CCOCC1 [Compound 26, 4-Methyl-3-(morpholine-4-sul-fonyl)-N,S-(1,3,3-tri-methyl-bicyclo[2.2.1]-hept-2-yl)-benzamide] | 61.7 ± 13.6 % | 6.92 | 8.43 | 5.70 | 8.11 | Anti-Allodynia [%] ([1]; 1 mg/kg): 53.5 ± 14.2%; Anti-Allodynia [%] ([1]; 6 mg/kg): 61.1 ± 12.6 %; Anti-Allodynia [%] ([1]; 10 mg/kg): 44.0 ± 16.2% |
| Cc1c(C(=O)c2cccc3ccccc23)c2cccc3c2n1[C@H](CN1CCOCC1)CO3 [WIN, WIN 55,212-2, reference compound] |  |  |  |  |  | Anti-Allodynia [%] ([1]; 2.5 mg/kg): 75.2 ± 13.8% |
| CC1(C)[C@@H]2CC[C@@](C)(C2)[C@@H]1NC(=O)c1ccc(Br)c(S(=O)(=O)N2CCCCC2)c1 [Compound 17, 4-Bromo-3-(piperidine-1-sul-fonyl)-N-(1,3,3-tri-methylbicyclo[2.2.1]hept-2-yl)-benzamide] |  | 7.03 | 7.88 | 6.49 | 7.74 |  |
| CN(Cc1ccccc1)S(=O)(=O)c1cc(C(=O)NC2C(C)(C)[C@@H]3CC[C@]2(C)C3)ccc1Br (stereo in doubt) [Compound 23, 3-(Benzyl-methyl-sulfamoyl)-4-bromo-N-(1,3,3-tri-methyl-bicyclo[2.2.1]hept-2-yl)-benzamide] |  | < 6.00 | 7.99 |  |  | pIC50 (CB2 receptor [5]; antagonist, read-out: in vitro CB2 receptor antagonist potency IC50): 7.86 |
